Key:
BoGLR3.3 = assay: Single-cell Ca2+ imaging in COS-7 cells expressing BoGLR3.3; assay type: cell-based, Brassica oleracea; conditions: COS-7 cells expressing BoGLR3.3 alone, external Glu application
Method: (§1) The full-length coding sequences were amplified from cDNA of Arabidopsis (GLR3.1, GLR3.3, and GLR3.6), B. oleracea (BoGLR3.3) or O. sativa (OsGLR3.1). The coding sequences of GLR3.3-CD2 and GLR3.3-T3 were generated through site-directed mutagenesis with GLR3.3 as template. All coding sequences respectively inserted into a dual-promoter vector pBudCE4.1 (Invitrogen) with coding sequence of GCaMP6s for co-expression in […] or COS-7 cells as previously described. Mammalian cells were cultured in DMEM supplemented with 10% FBS in a 5% CO2 incubator at 37° C. under controlled humidity, and transfected using a Lipofectamine 3000 Transfection Reagent kit (Invitrogen).
(§2) COS-7 cells expressing GCaMP6s together with various GLR proteins were monitored by a Zeiss AxioObserver ZI inverted microscope (Ivision 4.5 software) with 2-s intervals under a 20× objective as previously described. The standard solution for Ca^2+ imaging contained 120 mM NaCl, 3 mM KCl, 1 mM MgCl2, 1.2 mM NaHCO3, 10 mM glucose, 10 mM HEPES, pH 7.5. At 60 s after initiation of the imaging procedure, the bath was perfused using a peristaltic pump with the standard solution supplemented with 100 mM glutamate to elicit Ca^2+ entry through active channels.

OsGLR3.1 = biological target: T1, OsGLR3.1 (Oryza sativa subsp. japonica, UniProt Q7XP59); assay: Single-cell Ca2+ imaging in COS-7 cells expressing OsGLR3.1; assay type: cell-based; conditions: COS-7 cells expressing OsGLR3.1 alone, external Glu application
T1 construct: expressed in transfected cells; host or cells: COS-7
T1 sequence (Q7XP59 21-938): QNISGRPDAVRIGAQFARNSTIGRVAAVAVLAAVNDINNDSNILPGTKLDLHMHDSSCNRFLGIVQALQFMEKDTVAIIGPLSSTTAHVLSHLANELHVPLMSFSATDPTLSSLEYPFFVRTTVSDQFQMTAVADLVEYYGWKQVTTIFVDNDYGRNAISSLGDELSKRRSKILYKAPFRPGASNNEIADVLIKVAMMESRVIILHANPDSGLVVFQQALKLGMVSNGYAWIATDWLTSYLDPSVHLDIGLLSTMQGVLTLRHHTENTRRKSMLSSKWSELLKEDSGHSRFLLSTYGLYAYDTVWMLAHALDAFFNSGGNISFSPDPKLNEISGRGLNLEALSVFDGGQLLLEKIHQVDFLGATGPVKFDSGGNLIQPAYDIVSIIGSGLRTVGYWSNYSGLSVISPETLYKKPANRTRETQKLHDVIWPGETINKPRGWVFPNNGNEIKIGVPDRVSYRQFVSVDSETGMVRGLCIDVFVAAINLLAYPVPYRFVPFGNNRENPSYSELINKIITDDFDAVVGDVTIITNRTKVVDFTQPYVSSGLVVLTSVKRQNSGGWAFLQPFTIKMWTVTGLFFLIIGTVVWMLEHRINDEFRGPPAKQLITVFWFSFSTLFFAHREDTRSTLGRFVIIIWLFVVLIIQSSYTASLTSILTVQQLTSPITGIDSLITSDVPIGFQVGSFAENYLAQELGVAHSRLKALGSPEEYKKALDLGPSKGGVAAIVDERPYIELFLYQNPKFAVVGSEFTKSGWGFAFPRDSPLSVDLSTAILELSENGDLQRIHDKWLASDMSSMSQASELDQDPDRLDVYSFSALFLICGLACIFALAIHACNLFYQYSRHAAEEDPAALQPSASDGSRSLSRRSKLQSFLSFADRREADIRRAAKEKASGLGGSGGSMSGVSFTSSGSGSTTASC
Method: as §1, §2

GLR3.3 channel [1] = biological target: T2, GLR3.3 channel (Arabidopsis thaliana, UniProt Q9C8E7); assay: Single-cell Ca2+ imaging in COS-7 cells expressing GLR3.3; assay type: cell-based; parameters: expressed in transfected cells; host or cells: COS-7 (Ca2+ imaging); conditions: COS-7 cells expressing GLR3.3 alone, external Glu application (100 mM glutamate)
T2 sequence (Q9C8E7 24-933): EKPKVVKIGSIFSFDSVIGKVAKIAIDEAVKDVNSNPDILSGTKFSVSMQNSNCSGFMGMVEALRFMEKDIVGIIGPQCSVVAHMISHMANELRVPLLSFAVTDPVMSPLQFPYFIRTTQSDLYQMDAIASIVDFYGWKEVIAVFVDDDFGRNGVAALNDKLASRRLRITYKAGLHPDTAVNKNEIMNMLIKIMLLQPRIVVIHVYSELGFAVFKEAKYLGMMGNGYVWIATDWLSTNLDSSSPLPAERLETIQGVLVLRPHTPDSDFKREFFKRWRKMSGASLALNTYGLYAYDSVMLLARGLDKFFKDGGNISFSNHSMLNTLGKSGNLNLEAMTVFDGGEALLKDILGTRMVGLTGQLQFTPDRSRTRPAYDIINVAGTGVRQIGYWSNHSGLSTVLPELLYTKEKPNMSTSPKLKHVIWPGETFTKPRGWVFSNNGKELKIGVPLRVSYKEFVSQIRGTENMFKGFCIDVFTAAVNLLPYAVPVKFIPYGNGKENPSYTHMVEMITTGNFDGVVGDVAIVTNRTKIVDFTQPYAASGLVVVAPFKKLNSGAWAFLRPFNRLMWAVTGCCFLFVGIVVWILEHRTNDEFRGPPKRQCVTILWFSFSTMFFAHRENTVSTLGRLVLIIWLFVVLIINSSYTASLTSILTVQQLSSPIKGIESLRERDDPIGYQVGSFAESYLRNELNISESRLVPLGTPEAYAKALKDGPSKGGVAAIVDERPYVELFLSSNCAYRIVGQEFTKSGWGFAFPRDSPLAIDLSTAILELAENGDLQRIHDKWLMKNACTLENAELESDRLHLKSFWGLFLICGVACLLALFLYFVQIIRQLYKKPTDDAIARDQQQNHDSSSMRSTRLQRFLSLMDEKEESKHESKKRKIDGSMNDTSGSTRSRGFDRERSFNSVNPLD
Method: as §1, §2

GLR3.3 channel [2] = biological target: T2, GLR3.3 channel; assay: Whole-cell patch-clamp recording in HEK293 cells expressing GLR3.3; assay type: cell-based; parameters: expressed in transfected cells; host or cells: COS-7 (Ca2+ imaging) / HEK293 (patch clamp); conditions: HEK293 cells expressing GLR3.3 alone, free internal Ca2+ in pipette 1 μM, external Glu
Method: The whole-cell patch-clamp recordings were performed on an Axopatch 200B patch-clamp configuration with a Digidata 1550 digitizer (Axon Instruments) as described previously. Clampex 10.7 and Clampfit 10.7 software (Axon Instruments) were used for data acquisition and analysis.
To record Ca^2+ currents across plasma membrane of HEK293 cells, the bath solution contained 100 mM Na-glutamate, 40 mM NaCl, 5 mM KCl, 2 mM MgCl2, 10 mM CaCl2, 10 mM HEPES, and 10 mM glucose (pH 7.5, adjusted with NaOH). The pipette solution with 0 nM free Ca^2+ contained 140 mM CsCl, 5 mM EGTA, and 10 mM HEPES (pH 7.5, adjusted with CsOH), while the pipette solution with 1 μM free Ca^2+ contained 140 mM CsCl, 5 mM EGTA, 4.85 mM CaCl2) and 10 mM HEPES (pH 7.5, adjusted with CsOH). Free Ca^2+ was calculated with Webmaxc Standard software (https://somapp.ucdmc.ucdavis.edu/pharmacology/bers/maxchelator/webmaxc/webmaxcS.htm). A ramp voltage protocol of 2-s duration from −180 mV to +20 mV (holding potential 0 mV) was applied 1 min after achieving a whole-cell configuration, and currents were recorded every 20 s, with 5 repeats in total for each cell. The five current traces were used for statistical analysis to produce average current-voltage curves.

CaM7 = biological target: T3, CaM7 (Arabidopsis thaliana, UniProt P59220); assay: ITC (isothermal titration calorimetry) assay of CBD peptides with 6His-CaM7; assay type: binding; conditions: ratio of KD values
T3 construct: made in house; host or cells: Escherichia coli BL21 (DE3)
Method: ITC was carried out at 25° C. on a MicroCal iTC200 instrument (GE Healthcare). 250 μM of peptides were titrated against 20 μM of 6His-CaM7 proteins (purified by size-exclusion chromatography using Superdex 200 Increase 10/300 GL, GE Healthcare) in the reaction buffer (25 mM HEPES, 100 mM NaCl, pH 7.5) with addition of 1 mM Ca^2+ or 2 mM EGTA. Titrations were performed by an automated sequence of 20 injections spaced at 150-s intervals to ensure complete equilibration, and raw data were analyzed with Origin software (version 7.0) supplied with the instrument.

| CaM binding affinity lower than that of wild type CBD (CaM7) | Compound | Glu-activated [Ca2+]cyt change (BoGLR3.3) | Glu-activated [Ca2+]cyt change (OsGLR3.1) | Glu-activated [Ca2+]cyt change (GLR3.3 channel [1]) | Glu-induced currents (GLR3.3 channel [2]) |
| --- | --- | --- | --- | --- | --- |
| – | N[C@@H](CCC(=O)O)C(=O)O [Glu, glutamate] | rapid [Ca^2+]cyt increases | rapid [Ca^2+]cyt increases | rapid [Ca^2+]cyt increases | large inward currents |
| approximately 10 fold | CC(C)C[C@H](NC(=O)[C@H](CO)NC(=O)[C@H](CC(C)C)NC(=O)[C@H](Cc1ccccc1)NC(=O)[C@H](CCCNC(=N)N)NC(=O)[C@H](CCC(N)=O)NC(=O)[C@H](CC(C)C)NC(=O)[C@H](CCCNC(=N)N)NC(=O)[C@@H](NC(=O)[C@H](CO)NC(=O)[C@H](CC(=O)O)NC(=O)[C@H](Cc1c[nH]cn1)NC(=O)[C@H](CC(N)=O)NC(=O)[C@H](CCC(N)=O)NC(=O)[C@H](CCC(N)=O)NC(=O)[C@H](CCC(N)=O)NC(=O)[C@@H](N)CC(=O)O)[C@@H](C)O)C(=O)O [mutated CBD peptide] | – | – | – | – |

From patent US20250270584A1, “Gene editing to provide insect resistance in crops” (The Regents of the University of California, priority 2022, published 2025)
